For data set [1], the system named is acid phosphatase, alkaline phosphatase, and inorganic pyrophosphatase. The note with it: for Percent Orthophosphate Released in 90 min.: pH 7.0, 37° C. The procedure: Enzymatic hydrolysis is conducted in 100 millimolar morpholinopropane sulfonic acid—NaOH buffer solution (pH 7.0) containing 1.3 mg./ml of TSPP. Inhibitors of this invention are added (except to the control) to a final concentration of 1,000 ppm fluoride ion (from NaF) and 0.5% of the sodium salt of hydrolyzed methoxyethylene-maleic anhydride (1:1) copolymer, M.W. 70,000 (Gantrez S-97 Pharmaceutical Grade). Equal activities of acid phosphatase, alkaline phosphatase, and inorganic pyrophosphatase are then added to yield a total phosphatase activity of 0.3 units/ml. Samples of the test solution are taken and total orthophosphate available in each sample measured after 3 hours hydrolysis in 4N HCl at 100° C. The reaction mixture is incubated at 37° C. with shaking and aliquots taken at appropriate times through at least 90 minutes for orthophosphate determination.

The procedure of data set [2]: The in vitro formation of HAP is measured titrimetrically via a pH stat procedure. Stock solutions of 0.1M CaCl2 and 0.1M NaH2PO4 are prepared fresh in carbonate-free deionized distilled water. To 23 ml CO2-free deionized water 1.0 ml. of the stock phosphate solution and 1.0 ml. of an aqueous solution of 1×10^−4 of the anticalculus agent being tested are added followed by 1.0 ml. of the stock calcium-chloride solution which initiates the reaction. The reaction is conducted at pH 7.4 under a nitrogen atmosphere. Consumption of 0.1N NaOH is recorded automatically from which the time required for crystal formation is determined.

Molecules are shown by their SMILES. Like-named read-outs stand apart in the source and are kept apart here.

For `O=P([O-])([O-])OP(=O)([O-])[O-].[Na+].[Na+].[Na+].[Na+]` [TSPP, Tetrasodium pyrophosphate], the “Percent Orthophosphate Released in 90 min.” value is recorded as 98% in data set [1] (Control (no inhibitors), 1.3 mg./ml TSPP, total phosphatase activity 0.3 units/ml); 58% in data set [1] (With Inhibitors: 1,000 ppm fluoride ion (from NaF) and 0.5% Gantrez S-97, 0.3 units/ml phosphatase). Also, the “Percent Relative Protection (reduction of hydrolysis of P-O-P bonds with inhibitors)” value in data set [1] (With inhibitors vs control, 90 min.) was determined as 41%. Moreover, the “Time of Crystal Growth Inhibition” value worked out at 0.8 h in data set [2] (Water, pH 7.4, nitrogen atmosphere); 0.0 h in data set [2] (incubated with Alk. Phosphatase, pH 7.4); 0.3 h in data set [2] (incubated with Pyrophosphatase, pH 7.4); 0.4 h in data set [2] (incubated with Saliva, pH 7.4). The “Delay of HAP formation (in words)” value in data set [2] (in water) is reported as “significantly delays HAP formation”. Further, in data set [2] (incubated with pyrophosphatase and alkaline phosphatase), the “Delay period of HAP formation (in words)” value is reported as “drastically reduces the delay period”. For the same compound, in data set [2] (incubated with saliva), the “Effectiveness in delaying HAP formation (in words)” value was “drastically reduced”.

In the case of `O=P([O-])([O-])OP(=O)([O-])[O-].[K+].[K+].[K+].[K+]` [TKPP, tetrapotassium pyrophosphate], the “Enzymatic hydrolysis results compared with TSPP (in words)” value in data set [1] (equivalent amounts of TKPP substituted for TSPP, with and without inhibitors) was “Substantially the same results”. Also, in data set [2] (water, saliva, pyrophosphatase, alkaline phosphatase, TKPP instead of TSPP), the “HAP formation inhibition results compared with TSPP (in words)” value was “Substantially the same results”.

The values above are taken from US8535730B1, “Anticalculus oral composition” (Colgate-Palmolive Company, priority 1985, dated 2013).
